This is an account of results in patent US8933096B2, “Antimicrobial agents” (Rugers, The State University of New Jersey, priority 2010, dated 2015).

Molecules are shown by their SMILES.

The test system of one test is MRSA. The test can be described thus: Test C: planktonic antibacterial broth microdilution assay (MIC) vs MRSA. The format is cell-based. As to conditions: Staphylococcus aureus, 37° C., growth read after 24 to 48 hours at OD 600 nm. The method, then: (§1) Test C. Planktonic (Free-Living) Antibacterial Assay.
(§2) Planktonic antibacterial activity can be determined using a broth microdilution assay in which log-phase bacteria are grown at 37° C. in appropriate medium containing two-fold serial dilutions of a compound to yield a final concentration ranging from 256 to 0.1 μg/ml. For determination of minimal inhibitory concentration (MIC) values, bacterial growth is monitored after 24 to 48 hours by measuring optical density at 600 nm.
For orientation: In broth dilution the organism is exposed to a series of concentrations in liquid medium.

Test [1] has as its system methicillin-Sensitive Staphylococcus aureus (MSSA). The test can be described thus: Test C: planktonic antibacterial broth microdilution assay (MIC) vs MSSA. Format: cell-based. As to conditions: 37° C., growth read after 24 to 48 hours at OD 600 nm. The method, then: as §1, §2
Another test has as its target T1, S. aureus FtsZ GTPase (Staphylococcus aureus, UniProt P0A031).
T1 sequence (P0A031 1-390): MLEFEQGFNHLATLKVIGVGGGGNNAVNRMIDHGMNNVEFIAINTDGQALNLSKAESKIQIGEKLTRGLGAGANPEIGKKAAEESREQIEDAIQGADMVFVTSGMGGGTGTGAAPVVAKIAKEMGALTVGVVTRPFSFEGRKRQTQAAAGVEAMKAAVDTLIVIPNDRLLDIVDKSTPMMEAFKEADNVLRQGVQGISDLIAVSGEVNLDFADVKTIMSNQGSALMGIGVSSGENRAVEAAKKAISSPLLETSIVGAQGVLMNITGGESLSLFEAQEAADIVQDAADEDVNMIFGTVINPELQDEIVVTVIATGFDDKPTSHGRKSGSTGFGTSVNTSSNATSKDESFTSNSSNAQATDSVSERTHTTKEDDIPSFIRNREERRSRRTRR
The test is described as follows: Test B: FtsZ GTPase inhibition, colorimetric malachite green assay. The format is biochemical. To be noted: 1 mM GTP, 20 mM CaCl2, 2 μM FtsZ, 60 minutes at room temperature, read-out: IC50 (compound concentration at which FtsZ GTPase activity is inhibited by 50%). An excerpt:
Test B. Determining the FtsZ GTPase Inhibitory Activities of Compounds of the Invention.
Compound-induced inhibition of the FtsZ GTPase activity can be tested using a colorimetric assay in which the inorganic phosphate (Pi) released upon FtsZ-catalyzed hydrolysis of GTP reacts with malachite green and molybdate under acidic conditions to form a ternary complex that absorbs light at 650 nm, thus enabling quantitation of Pi levels by recording the absorbance at 650 nm (A650). All reactions are conducted in triplicate in 96-well microtiter plates. Differing concentrations (ranging from 0 to 1.5 mM) of compound are combined with 1 mM GTP and 20 mM CaCl2, the latter being used because FtsZ GTPase activity requires the presence of Ca2+ ions. The reactions will be initiated by addition of 2 μM FtsZ and allowed to incubate for 60 minutes at room temperature. Following incubation, the reactions will be stopped by adding 80 μl of an acidic malachite green-molybdate solution containing 0.3 mg/ml malachite green oxalate, 2 mg/ml sodium molybdate, 0.5 mg/ml Triton X-100, and 0.7 N HCl. […] Ten minutes following addition of the acidic malachite green-molybdate solution, the A650 value for each reaction are recorded using a microtiter plate reader. […] This standard curve is then fit by linear regression analysis to yield the quantitative relationship between A650 and Pi concentration. […]

As a reminder, the MIC is the least concentration at which growth counts as inhibited.

`COc1cc2cc(-c3cccc(C(C)(C)C)c3)nc(CN=C(N)N)c2cc1OC` [Example 13]: the MIC (in the test on MRSA; in test [1]) was not above 8 µg/mL in each case.

In turn, `COc1cc2cc(-c3cc(-c4ccccc4)cc(-c4ccccc4)c3)nc(N=C(N)N)c2cc1OC` [Example 3] returned an MIC in test [1] not above 32 µg/mL. On the same count and under the same terms, under `COc1cc2cc(-c3cccc(C(C)(C)C)c3)nc(C/N=C(/C)N)c2cc1OC` [Example 23] stands not above 8 µg/mL.

On to `COc1cc(-c2cc3cc(OC)c(OC)c(OC)c3c(C)[n+]2C)cc(-c2cc(-c3ccc(F)cc3)cc(-c3ccc(F)cc3)c2)c1OC.[I-]` [Example 19], for which the MIC (in the test on MRSA; in test [1]) was not above 8 µg/mL throughout. Besides, the IC50 at S. aureus FtsZ GTPase was less than 100 µM. In test [1], `COc1cc2cc(-c3cccc(-c4ccccc4)c3)[n+](C)c(N(C)C)c2cc1OC.[I-]` [Example 5] registered an MIC not above 8 µg/mL. Turning to `COc1cc2cc(-c3cccc(-c4ccccc4)c3)nc(NCCN)c2cc1OC` [Example 9], the minimal inhibitory concentration (MIC) in test [1] is not above 8 µg/mL. In test [1], `COc1cc(-c2cc3ccccc3c[n+]2C)cc(-c2cccc(-c3ccc(F)cc3)c2)c1OC.[I-]` [Example 22] gave an MIC not above 8 µg/mL. Moreover, on S. aureus FtsZ GTPase, the IC50 is less than 100 µM.

Take `COc1cc2cc(-c3cccc(-c4ccccc4)c3)nc(N=C(N)N)c2cc1OC` [Example 7]: the MIC in test [1] was not above 8 µg/mL. As for `COc1cc(-c2cc3cc(OC)c(OC)c(OC)c3c(C)[n+]2C)cc(-c2cccc(-c3ccc(F)cc3)c2)c1OC.[I-]` [Example 15], the MIC (against MRSA; in test [1]) was not above 8 µg/mL throughout.
